Consider eight compounds from patent publication US20230241088A1, “COMPOSITION FOR PREVENTING OR TREATING LUNG CANCER COMPRISING ORTHO-TOPOLIN RIBOSIDE AS ACTIVE INGREDIENT” (CHUNG-ANG UNIVERSITY INDUSTRY-ACADEMY COOPERATION FOUNDATION, priority 2022, published 2023).

What all share (assay type): cell-based, Human
The subject of assay [1] is A549. In words: MTT cell viability assay, A549. How it is done:
(§1) Human NSCLC cell lines A549, H1437, H2087, H522, and HCC827 were obtained from the Korean Cell Line Bank (KCLB, Seoul, Korea). These cells were cultured in RPMI-1640 medium (Gibco, N.Y., USA) supplemented with 10% FBS (Gibco) and 1% penicillin-streptomycin (HyClone Laboratories, Logan, Utah, USA). All cell lines were cultured under standard conditions (5% CO2, humid environment, 37° C.). A549 cells were seeded at a density of 1×10^4 cells/well and H1437, H2087, H522, HCC827, and MRCS cells at a density of 2×10^4 cells/well in 96-well plates and were cultured until cells reach approximately 70-80% confluency. The NSCLC cells were treated with plant hormones for 48 hours. Stock solution of each plant hormone was diluted with culture medium, wherein concentrations of DMSO, water, methanol, and ethanol in the culture medium were below 1% (v/v). The half-maximal inhibitory concentration (IC50) was calculated using CompuSyn software (ComboSyn Inc., Paramus, N.J., USA).
(§2) The inhibitory effect of plant hormones and their derivatives was investigated on 5 NSCLC cell lines (A549, H1437, H2087, H522, and HCC827). The NSCLC cells were treated with ABA, Cor, ethephon, GR-24, IAA, KR, MJ, N6b, N6i, oTR, and SS-HCS at concentrations of 0.1, 0.5, 1, 5, 10, 50, and 100 μM. Cell viability and IC50 values for 48 hours were investigated by performing the MTT assay.

Assay [2] has as its system H1437. In words: MTT cell viability assay, H1437. As for the experimental part: as §1, §2
For orientation: Tetrazolium assays rely on reduction of a dye to a coloured formazan, in cell work by metabolically active cells.

Assay [3] relates to H2087. In words: MTT cell viability assay, H2087. As for the experimental part: as §1, §2
Assay [4] concerns H522. In words: MTT cell viability assay, H522. As for the experimental part:
as §1, §2

Assay [5] deals with HCC827. In words: MTT cell viability assay, HCC827. As for the experimental part: as §1, §2
Assay [6] concerns NSCLC cells. In words: MTT cell viability assay, NSCLC cells overall. To be noted: Homo sapiens; 48 hours, MTT assay, 5 NSCLC cell lines. As for the experimental part:
as §1, §2

The mark [7] stands for this setting: Homo sapiens, NCI-H1437, 48 hours.
Setting [8] is: Homo sapiens, NCI-H2087, 48 hours.
The mark [9] stands for this setting: Homo sapiens, NCI-H522, 48 hours.

A value given as a limit tells only on which side of the number the result lay.

The IC50 is the concentration that inhibits the measured activity by half. Take `CC1=CC(=O)CC(C)(C)[C@@]1(O)/C=C/C(C)=C\C(=O)O` [ABA, abscisic acid]: the IC50 in assay [1] (Homo sapiens, A549, 48 hours) is more than 100 µM; in assay [2] (setting [7]) it was more than 100 µM; in assay [3] (setting [8]) it was more than 100 µM; in assay [4] (setting [9]), more than 100 µM; in assay [5] (Homo sapiens, HCC827, 48 hours), more than 100 µM.

On to `CC[C@H]1C=C(C(=O)N[C@@]2(C(=O)O)C[C@@H]2CC)[C@H]2CCC(=O)[C@H]2C1` [Cor, coronatine], for which the IC50 in assay [1] (48 hours), in assay [2] (48 hours), in assay [3] (48 hours), in assay [4] (48 hours) and in assay [5] (48 hours) was more than 100 µM each time.

`O=P(O)(O)CCCl` [Ethephon, ethephon]: the IC50 was more than 100 µM in assay [1] (Homo sapiens, A549, 48 hours); more than 100 µM in assay [2] (setting [7]); more than 100 µM in assay [3] (setting [8]); more than 100 µM in assay [4] (setting [9]); more than 100 µM in assay [5] (Homo sapiens, HCC827, 48 hours).

For the compound `CC1=C[C@H](O/C=C2/C(=O)O[C@@H]3c4ccccc4C[C@H]23)OC1=O` [GR-24, Gerald Rosebery-24], the IC50 in assay [1] (48 hours), in assay [2] (48 hours), in assay [3] (48 hours), in assay [4] (48 hours) and in assay [5] (48 hours) was more than 100 µM throughout.

Turning to `OC[C@H]1O[C@@H](n2cnc3c(NCc4ccco4)ncnc32)[C@H](O)[C@@H]1O` [KR, Kinetin riboside], the 50% inhibitory concentration (IC50) is 12.3 ± 1.42 µM in assay [1] (Homo sapiens, A549, 48 hours); 76.8 ± 13.7 µM in assay [2] (setting [7]); 98.5 ± 6.72 µM in assay [3] (setting [8]); 73 ± 10.9 µM in assay [4] (setting [9]); 33.13 ± 0.14 µM in assay [5] (Homo sapiens, HCC827, 48 hours); less than 100 µM in assay [6].

For `CC/C=C\CC1C(=O)CCC1CC(=O)OC` (stereo not shown) [MJ, methyl jasmonate], the concentration for half-maximal inhibition (IC50) is more than 100 µM in assay [1] (Homo sapiens, A549, 48 hours); more than 100 µM in assay [2] (setting [7]); more than 100 µM in assay [3] (setting [8]); more than 100 µM in assay [4] (setting [9]); more than 100 µM in assay [5] (Homo sapiens, HCC827, 48 hours).

In the case of `OC[C@H]1O[C@@H](n2cnc3c(NCc4ccccc4)ncnc32)[C@H](O)[C@@H]1O` [N^6b, N^6-benzyladenosine, reference compound], the IC50 in assay [6] was less than 100 µM.

In the case of `CC[C@@H](C(C)C)[C@@H](O)[C@H](O)[C@@H](C)[C@H]1CC[C@H]2[C@@H]3CC(=O)[C@H]4C[C@H](O)[C@H](O)C[C@]4(C)[C@H]3CC[C@]12C` [SS-HCS, SS-homocastasterone], the half-inhibitory concentration (IC50) was 87.5 ± 15.5 µM in assay [1] (48 hours); 34.7 ± 2.04 µM in assay [2] (48 hours); 85.4 ± 8.81 µM in assay [3] (48 hours); more than 100 µM in assay [4] (48 hours); 72.3 ± 13.6 µM in assay [5] (48 hours).
